We go through 12 compounds from ChEMBL document CHEMBL3244423, “Cardioselectivity as a function of molecular structure in beta-adrenoceptor blocking agents of the 1-(para-substituted aryloxy)-3-(isopropylamino)propan-2-ol type” (J Med Chem, 1978).

Test [1] deals with Beta-1 adrenergic receptor (Rattus norvegicus, UniProt P18090). Description: Antagonist activity at beta1 adrenergic receptor in isolated rat atria. The following applies: read-out: pA2 (converted).
Test [2] in a line: Selectivity ratio of beta1 adrenergic receptor in isolated rat atria to beta2 adrenergic receptor in isolated rat stomach fundus.
Test [3] concerns the target Beta-2 adrenergic receptor (Rattus norvegicus, UniProt P10608). Description: Antagonist activity at beta2 adrenergic receptor in isolated rat stomach fundus. The following applies: read-out: pA2 (converted).
The target of test [4] is Beta-2 adrenergic receptor (Rattus norvegicus) (UniProt P10608). Description: Agonist activity at beta2 adrenergic receptor in isolated rat stomach fundus in presence of propranolol.
Beta-2 adrenergic receptor (Rattus norvegicus), sequence (P10608 whole entry, looked up): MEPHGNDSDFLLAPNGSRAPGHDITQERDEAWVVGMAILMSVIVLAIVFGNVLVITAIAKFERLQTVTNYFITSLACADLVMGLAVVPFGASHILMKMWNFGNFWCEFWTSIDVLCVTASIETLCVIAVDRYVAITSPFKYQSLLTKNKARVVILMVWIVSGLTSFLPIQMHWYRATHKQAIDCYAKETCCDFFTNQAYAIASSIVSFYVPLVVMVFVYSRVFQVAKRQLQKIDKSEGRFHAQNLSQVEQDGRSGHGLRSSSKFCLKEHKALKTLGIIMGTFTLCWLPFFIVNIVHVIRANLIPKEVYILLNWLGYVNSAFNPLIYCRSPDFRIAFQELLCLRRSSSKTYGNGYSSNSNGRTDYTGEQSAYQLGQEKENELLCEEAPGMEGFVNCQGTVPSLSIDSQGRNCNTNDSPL
Test [5] deals with Beta-1 adrenergic receptor (Rattus norvegicus) (UniProt P18090). Description: Agonist activity at beta1 adrenergic receptor in isolated rat atria in presence of propranolol.
Beta-1 adrenergic receptor (Rattus norvegicus), sequence (P18090 whole entry, looked up): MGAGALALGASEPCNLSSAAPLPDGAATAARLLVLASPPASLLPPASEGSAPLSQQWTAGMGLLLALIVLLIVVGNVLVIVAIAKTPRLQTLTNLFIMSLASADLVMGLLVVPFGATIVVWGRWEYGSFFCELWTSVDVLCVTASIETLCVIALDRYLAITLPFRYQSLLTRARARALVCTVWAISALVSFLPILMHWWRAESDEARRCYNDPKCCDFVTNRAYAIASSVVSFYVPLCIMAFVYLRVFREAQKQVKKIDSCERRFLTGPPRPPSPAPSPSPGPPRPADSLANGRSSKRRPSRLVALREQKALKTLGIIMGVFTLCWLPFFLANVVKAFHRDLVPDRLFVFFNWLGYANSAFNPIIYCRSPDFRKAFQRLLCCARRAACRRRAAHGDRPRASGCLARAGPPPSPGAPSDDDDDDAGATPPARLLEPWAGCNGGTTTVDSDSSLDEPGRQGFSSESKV
For test [6], the system named is Felis catus. Description: In vivo antagonist activity at beta1 adrenergic receptor in cat assessed as myocardial activity. Format: functional, organism-based. The following applies: Myocardium, read-out: pA2 (converted).
The species entered for test [7] is Felis catus. Description: Selectivity ratio of antagonist activity at beta1 adrenergic receptor in cat to antagonist activity at beta2 adrenergic receptor in cat.
The subject of test [8] is Felis catus. Description: In vivo antagonist activity at beta2 adrenergic receptor in cat assessed as vascular activity. Format: organism-based. The following applies: read-out: pA2 (converted).

Activity calls are given as the source filed them. The calls are words filed in the database; no cut-off is given here.

Beta-1 adrenergic receptor, sequence (P18090 whole entry): as the sequence (P18090 whole entry, looked up) above
Beta-2 adrenergic receptor, sequence (P10608 whole entry): as the sequence (P10608 whole entry, looked up) above

`C/C=C\c1ccc(OCC(O)CNC(C)C)c(OC)c1` (racemic): the values for the Kb in test [1] and in test [3] were 0.2 µM and 0.02 µM, respectively. Further, the Selectivity ratio in test [2] is recorded as 0.1.
With `CC(C)NCC(O)COc1ccc(C(N)=O)cc1` (racemic), the Kb is 10 µM in test [1] and 15.8 µM in test [3]. Moreover, the Selectivity ratio in test [2] turned out to be 1.6.
Regarding `CC(C)NCC(O)COc1ccc(CC2(C)OCCO2)cc1` (racemic), the Kb in test [1] and in test [3] was greater than 316 µM in each case. Moreover, the outcome in test [4] and in test [5] was inactive.
Turning to `CC(C)NCC(O)COc1ccc2c(c1)OCCNC2=O` (racemic), the Kb was 18.2 µM in test [1] and 45.7 µM in test [3]. The Selectivity ratio in test [2] was determined as 2.5.
In the case of `CC(=O)Nc1ccc(OCC(O)CNC(C)C)cc1` (stereo not given) [PRACTOLOL], the Kb in test [1] is 0.339 µM.
`CCCc1ccc(OCC(O)CNC(C)C)cc1.Cl` (racemic): the Kb in test [1] was 0.0251 µM; in test [3], 0.158 µM. Further, the Selectivity ratio in test [2] is recorded as 6.5.
Take `CC(C)NCC(O)COc1ccc2c(c1)CCCNC2=O` (racemic): the results for the Kb in test [1] and in test [3] were 135 µM and 81.3 µM, respectively. In test [2], the Selectivity ratio turned out to be 0.6.
On to `CC(C)NCC(O)COc1ccc2c(c1)OCC(=O)N2` (racemic), for which the Kb with Felis catus [6] is 2.51 µM; in the test with Felis catus [8], 3.16 µM. Besides, the Selectivity ratio in the test listed under Felis catus [7] worked out at 1.3.
For `CNC(=O)c1ccc(OCC(O)CNC(C)C)cc1` (racemic), the results for the Kb in test [1] and in test [3] were 3.63 µM and 1000 µM, respectively. In addition, the Selectivity ratio in test [2] was found to be 275.
The corresponding values for `C/C=C/c1ccc(OCC(O)CNC(C)C)c(OC)c1` (racemic) are 0.0501 µM, 1.26 µM and 25.
Turning to `CCc1ccc(OCC(O)CNC(C)C)cc1` (racemic), the Kb in test [1] was 0.0631 µM; in test [3], 0.0316 µM. For the same compound, the Selectivity ratio in test [2] amounted to 0.5.
Regarding `CC(C)NCC(O)COc1ccc2c(c1)CCCC(=O)N2` (racemic), the Kb in the test on Felis catus [6] and with Felis catus [8] was 10 µM each time. In addition, in the test listed under Felis catus [7], the Selectivity ratio is 1.
